Experimental data: US11559512B2, “Composition for prevention, alleviation, and/or treatment of heat illness” (priority 2017, dated 2023)
Entries after “also recorded” stand apart in the source; their conditions may differ.

Key:
PPARγ = PPARγ expression in HUVECs, antibody staining, confocal microscopy; format: cell-based, human
Description: (§1) Then, six 35-mm dishes were provided, and 2 mL/dish of the solution with the adjusted HUVEC density was inoculated. Auraptene (10 mM) and tangeretin (10 mM) were each added at 2 μL (final concentration: 10 μM)/dish to two dishes. Also, DMSO was added at 2 μL/dish to the remaining 2 dishes to prepare a control.
(§2) The supernatant of the HUVECs cultured in each 35-mm dish was removed, and 2 mL/dish of 4% paraformaldehyde in a phosphate buffer solution was added. The cells were left standing at room temperature for 1 hour.
(§3) The solution was removed, and then, the cells were rinsed twice. 2 mL/dish of 0.5% Triton-X00 (Wako Pure Chemical Industries, Ltd.) in PBS was added, and the cells were left standing at room temperature for 5 minutes. The solution was removed, and then, the cells were rinsed twice. 1 mL/dish of an anti-ABCD3 antibody, an anti-PPARα antibody or an anti-PPARγ antibody, each of which was diluted 150-fold with a FACS buffer, was added, and the cells were left standing at room temperature for 2 hours for reaction.
The solution was removed, and then, the cells were rinsed twice. 1 mL/dish of DyLight 649-labeled anti-Rabbit IgG antibody diluted 500-fold with a FACS buffer was added, and the cells were left standing at room temperature for 1 hour in the dark for reaction. The solution was removed, and then, the cells were rinsed twice. Two drops of Diamond Antifade Mountant with DAPI were added to the cells, and a round glass cover was put on the cells, followed by fluorescence photographing under a confocal laser scanning microscope.

IL-6 = IL-6 concentration in supernatant of lymphocytes under heat stress load (ELISA); format: cell-based, human
Description: 10 mL of human peripheral blood was collected and anti-coagulated with heparin, and 10 mL of PBS(−) was added thereto and stirred. 15 mL of Lymphocyte Separation Medium 1077 (PromoCell GmbH) was layered thereon so as not to mix blood thereinto, followed by blood separation at 1600 rpm for 30 minutes in a centrifuge. The mononuclear cell layer thus separated was collected into a dropper, added to 20 mL of a culture medium, and centrifuged at 1500 rpm for 5 minutes in a centrifuge. The supernatant was removed, and then, 20 mL of a culture medium was added to the cells and stirred. The cells were centrifuged again at 1500 rpm for 5 minutes in a centrifuge. The supernatant was removed, and then, 10 mL of a culture medium was added to the cells and stirred. The whole amount was added to a 10-cm dish and incubated at 37° C. for 1 hour in a 5% CO2 environment. […] The solution with the adjusted lymphocyte density was inoculated at 4 mL/well to 2 wells of each 6-well plate. […] Then, the supernatant was recovered into a 1.5 mL Eppendorf tube and centrifuged at 8000 rpm for 5 minutes in a centrifuge. The supernatant was recovered into a fresh 1.5-mL Eppendorf tube and preserved at −20° C.
Human IL-6 of an ELISA kit was used in IL-6 measurement. 5× Coating Buffer A included in the assay kit was diluted 5-fold with distilled water. Capture Antibody diluted 200-fold with the Coating Buffer was added at 100 μL/well to a 96-well plate, and the plate was left standing overnight at 4° C.
The antibody solution was removed, and each well was washed four times. A very small amount of the reaction solution remaining in the plate was completely removed with Kim Towel. Then, ELISA Assay Diluent (BioLegend, Inc.) diluted 5-fold with distilled water was added at 200 μL/well, and the plate was left standing overnight at 4° C.
The solution was removed, and each well was washed four times. A very small amount of the reaction solution remaining in the plate was completely removed with Kim Towel. IL-6 standard protein was diluted with Assay Diluent to prepare dilution series of the IL-6 standard protein. The dilution series of the IL-6 standard protein and the 40° C. culture supernatant of the lymphocytes were added at 100 μL/well, and the plate was left standing at room temperature for 2 hours. The solution was removed, and each well was washed four times. A very small amount of the reaction solution remaining in the plate was completely removed with Kim Towel. Detection Antibody diluted 200-fold with Assay Diluent was added at 100 μL/well, and the plate was left standing at room temperature for 1 hour. […] The reaction was terminated by the addition of 2 N H2SO4 at 100 μL/well, followed by the absorbance measurement of the reaction solution in a plate reader at 450 nm.

[1] = system: human vascular endothelial cells (HUVECs); test: DiOC6 / PI staining and flow cytometry of HUVECs under heat stress load; format: cell-based; details: heat stress load 40° C. for 2 days, flow cytometry, vs DMSO
Description: Two days later, the culture solution of each well was removed with an aspirator. […] The supernatant was removed, and then, 5 mL of a culture medium at 37° C. was added to the cells and stirred. After the stirring, DiOC6 (final concentration: 80 nM) was added to each 15-mL tube and reacted at the same temperature as the culture temperature for 30 minutes.
The supernatant was removed, and then, 1 mL of a culture medium was added to the cells, and 2 μL of PI (Sigma-Aldrich Co. LLC) was added. The cells thus supplemented were transferred to a FACS tube and measured in a flow cytometer (BD).
In order to quantify the effects, the cytotoxicity suppressive effects of auraptene (component A) and tangeretin (component T) inhibiting the cell death caused by the load of heat stress were quantified using DiOC6 staining and flow cytometry as described above. The DiOC6 dye is a reagent for measuring mitochondrial activity and is a reagent that can perform measurement based on the attenuation of the amount of fluorescence by cytotoxicity (cell death, etc.).

[2] = system: human vascular endothelial cells (HUVECs); test: Suppression of cell death by addition of medium chain fatty acid, crystal violet / phase contrast microscopy; format: cell-based; details: auraptene 5 μM used alone, printed at 37° C. (FIG. 19A)
ABCD3 = ABCD3 expression in HUVECs, antibody staining, confocal microscopy; format: cell-based, human; details: usual culture and heat stress load (40° C. for 3 days), vs DMSO
Description: as §1, §2, §3
The solution was removed, and then, the cells were rinsed twice. […] Two drops of Diamond Antifade Mountant with DAPI were added to the cells, and a round glass cover was put on the cells, followed by fluorescence photographing under a confocal laser scanning microscope.

In the case of `CC(C)=CCC/C(C)=C/COc1ccc2ccc(=O)oc2c1` [auraptene, 7-geranyloxycoumarin], the “expression of PPARγ” value (PPARγ; HUVECs, 40° C. and 1 day, 10 μM, vs DMSO) is reported as “increase in the expression of PPARγ”, the PPARγ (PPARγ; Table 2 summary, HUVECs 40° C., 37° C. as comparative control) is reported as “Unchanged” and the Pyrogenic factor (IL-6; Table 2 summary, 40° C., inflammatory cytokines, e.g. IL-6 and CCL-2) is reported as “Decreased”. For the same compound, the “IL-6 sample A” value (IL-6; peripheral blood lymphocytes sample A, 40° C., auraptene 10 μM, non-addition 10 ± 1.1) was 5 ± 0.3 pg/mL, the “IL-6 sample B” value (IL-6; peripheral blood lymphocytes sample B, 40° C., auraptene 10 μM, non-addition 18 ± 0.8) was 10 ± 0.1 pg/mL and the “production of IL-6” value (IL-6; peripheral blood lymphocytes under heat stress load, vs DMSO, p<0.05) was “significantly suppressed”. For the same compound, the “number of DiOC6 staining-positive cells (suppression of cytotoxicity, cell death)” value [1] was “increased the number of DiOC6 staining-positive cells”, the “overall number of cells, auraptene alone” value [2] was “increase the overall number of cells” and the “change in the expression of ABCD3” value (ABCD3) was “change in the expression of ABCD3 was not observed; also recorded: not found”.
